Laboratory results reported in patent US20140219995A1, “INHIBITORS OF BACTERIAL TYPE III SECRETION SYSTEM” (priority 2011, published 2014).
Where two headings read alike, the source gives them in different places.

Key:
[1] = test system: T3SS-mediated secretion of ExoS′-βLA fusion protein, P. aeruginosa strain MDM973; assay: Effector-β-lactamase (ExoS′-βLA) secretion assay; assay type: cell-based, Pseudomonas aeruginosa; conditions: for IC50: Pseudomonas aeruginosa
Description: Effector-β-Lactamase (βLA) Secretion Assays.
P. aeruginosa. A gene encoding an ExoS'-β-lactamase (βLA) fusion protein (comprised of 234 codons of P. aeruginosa effector ExoS fused to the TEM-1 β-lactamase gene lacking secretion signal codons) was constructed by splicing by overlap extension PCR (SOE-PCR) (Choi and Schweizer, 2005, BMC Microbiol., 5:30) using primers 5-10 (Table 3, above), sequence confirmed, cloned into lacI^Q-containing GATEWAY® vector pUCP24GW (see Moir, et al., 2007, J Biomol. Screen., 12:855-64) behind the lac promoter, and introduced into P. aeruginosa by electroporation (see Choi, et al., 2006, J. Microbiol. Methods, 64:391-7). Secretion of fusion proteins was detected by measuring the hydrolysis of the chromogenic β-lactamase substrate nitrocefin in clear 96-well microplates in a modification of a previously described assay (Lee, et al., 2007, Infect. Immun., 75:1089-98). Cells of strain MDM973 (PAK/pUCP24GW-exoS:blaM) were sub-cultured in the morning from overnight growths in LBG into 0.1 ml of LBGIE with or without test compounds and grown for 150 min. Nitrocefin (100 μg/ml final) was added, and A490 measurements taken every minute for 15 min in a Victor^3V 1420 Multilabel HTS Counter (PerkinElmer). Slopes were calculated as a relative measure of the quantity of the effector-βLA fusion protein secreted and were absolutely dependent on induction with IPTG, EGTA, and the presence of a functional pscC gene in the P. aeruginosa cells. Typical signal:background ratios were 6-10.

[2] = test system: T3SS-mediated cytotoxicity of translocated effector protein ExoU in CHO cells; assay: Inhibition of P. aeruginosa ExoU-dependent CHO cell killing (translocation, LDH release); assay type: cell-based; conditions: Pseudomonas aeruginosa
Description: Inhibition of P. aeruginosa ExoU-Dependent CHO Cell Killing.
Pseudolipasin, which acts by direct inhibition of the ExoU phospholipase, was used as control inhibitor (Lee, et al, 2007, Infect. Immun., 75:1089-98).

[3] = read-out: Avg. Translocation IC50

Row | Compound | melting point | IC50 ([1]; read-out: Avg. Secretion IC50) | IC50 [2, 3] | other results
1 | O=C(COc1ccc(Cl)cc1Cl)NCc1ccc2c(c1)OCO2 [MBX-1668] | 117 °C | > 100 µM |  | effect of structural alteration on T3SS-mediated secretion inhibition ([1]; vs. MBX-1641): significantly inferior performance
2 | C[C@@H](Oc1ccc(Cl)cc1Cl)C(=O)NCc1ccc2c(c1)OCO2 [MBX-1684] |  | 3.7 µM |  | 
3 | CC(C)(Oc1ccc(Cl)cc1Cl)C(=O)NCc1ccc2c(c1)OCO2 [MBX-1685] | 92 °C | > 100 µM |  | effect of structural alteration on T3SS-mediated secretion inhibition ([1]; vs. MBX-1641): significantly inferior performance
4 | COc1ccc(CNC(=O)C(C)Oc2ccc(Cl)cc2Cl)cc1 (stereo not drawn) [MBX-1940] | 76 °C |  | 12.5 µM | 
5 | COc1cccc(CNC(=O)C(C)Oc2ccc(Cl)cc2Cl)c1 (stereo not drawn) [MBX-1941] | 119 °C | 17.2 µM |  | 
6 | COc1ccc(CNC(=O)C(C)Oc2ccc(Cl)cc2Cl)cc1OC (stereo not drawn) [MBX-1942] | 127 °C |  | > 100 µM | 
7 | COc1cc(CNC(=O)C(C)Oc2ccc(Cl)cc2Cl)cc(OC)c1 (stereo not drawn) [MBX-1943] | 111 °C | 18.8 µM | 23.7 µM | 
8 | COc1cc(CNC(=O)C(C)Oc2ccc(Cl)cc2Cl)cc(OC)c1OC (stereo not drawn) [MBX-1944] | 119 °C | 55.5 µM | > 100 µM | 
9 | COc1ccc(OC)c(CNC(=O)C(C)Oc2ccc(Cl)cc2Cl)c1 (stereo not drawn) [MBX-1947] | 67 °C | 34.8 µM | > 100 µM | 
10 | COc1cccc(CNC(=O)C(C)Oc2ccc(Cl)cc2Cl)c1OC (stereo not drawn) [MBX-1948] | 130 °C | 10.1 µM | > 100 µM | 
11 | COc1ccc(CNC(=O)C(C)Oc2ccc(Cl)cc2Cl)c(OC)c1 (stereo not drawn) [MBX-1949] | 117 °C | 16.9 µM |  | 
12 | Cc1ccccc1CNC(=O)C(C)Oc1ccc(Cl)cc1Cl (stereo not drawn) [MBX-1951] | 128 °C |  | 66.7 µM | 
13 | CC(Oc1ccc(Cl)cc1Cl)C(=O)NCc1ccccc1Cl (stereo not drawn) [MBX-1956] | 113 °C |  | 52.3 µM | 
14 | CC(Oc1ccc(Cl)cc1Cl)C(=O)NCc1ccccc1N(C)C (stereo not drawn) [MBX-1959] | 85 °C | 18.6 µM | 60 µM | 
15 | CC(Oc1ccc(Cl)cc1Cl)C(=O)NCc1cccc(N(C)C)c1 (stereo not drawn) [MBX-1960] | 108 °C | 12.2 µM | 58 µM | 
16 | CC(Oc1ccc(Cl)cc1Cl)C(=O)NCc1ccc(N2CCCC2=O)cc1 (stereo not drawn) [MBX-1987] | 138 °C | 18.8 µM | 20 µM | 
17 | CC(Oc1ccc(Cl)cc1Cl)C(=O)NCc1ccc2c(c1)n(C)c(=O)n2C (stereo not drawn) [MBX-1996] | 180 °C | 25.5 µM | > 100 µM | 
18 | COc1cc2c(cc1CNC(=O)C(C)Oc1ccc(Cl)cc1Cl)OCCO2 (stereo not drawn) [MBX-1998] | 152 °C | 17.6 µM | 51.4 µM | 
19 | CC(Oc1ccc(Cl)cc1Cl)C(=O)NCc1ccc2c(c1)OCCCO2 (stereo not drawn) [MBX-1999] | 115 °C | 23.9 µM | > 100 µM | 
20 | CC(Oc1ccc(Cl)cc1Cl)C(=O)NCc1ccc2c(c1)CCCN2C (stereo not drawn) [MBX-2000] | 119 °C | 25.7 µM | > 100 µM | 
21 | CC1Cc2cc(CNC(=O)C(C)Oc3ccc(Cl)cc3Cl)ccc2O1 (stereo not drawn) [MBX-2001] | 100 °C | 14 µM | 84 µM | 
22 | CC(Oc1ccc(Cl)cc1Cl)C(=O)NCc1ccc(-c2ccccc2)cc1 (stereo not drawn) [MBX-2022] | 114 °C | 100 µM |  | 
23 | CC(Oc1ccc(F)cc1Cl)C(=O)NCc1ccc2c(c1)OCO2 (stereo not drawn) [MBX-2026] | 95 °C |  |  | 
24 | COc1ccc(CNC(=O)C(C)Oc2ccc(F)cc2Cl)cc1OC (stereo not drawn) [MBX-2027] | 101 °C | 100 µM |  | 
25 | COc1ccc(CNC(=O)C(C)Oc2ccc(F)cc2Cl)cc1 (stereo not drawn) [MBX-2028] | 97 °C | 75.3 µM | > 100 µM | 
26 | CC(Oc1ccc(F)cc1Cl)C(=O)NCc1ccc(F)cc1 (stereo not drawn) [MBX-2029] | 95 °C | 52.1 µM | > 100 µM | 
27 | COc1cc(OC)c(OC)cc1CNC(=O)C(C)Oc1ccc(Cl)cc1Cl (stereo not drawn) [MBX-2030] | 142 °C | 74.5 µM | > 100 µM | 

Row | Compound | melting point | IC50 ([1]; read-out: Avg. Secretion IC50) | IC50 [2, 3] | other results
28 | CC(C)C(Oc1ccc(Cl)cc1Cl)C(=O)NCc1ccc2c(c1)OCO2 (stereo not drawn) [MBX-2146] |  |  |  | effect of structural alteration on T3SS-mediated secretion inhibition ([1]; vs. MBX-1641): significantly inferior performance
29 | COc1ccc(CNC(=O)C(C)Oc2ncc(Cl)cc2Cl)cc1OC (stereo not drawn) [MBX-2156] | 156 °C | 24 µM | > 100 µM | 
30 | COc1ccc(CNC(=O)C(C)Oc2ncc(Cl)cc2Cl)cc1 (stereo not drawn) [MBX-2157] | 135 °C | 9.9 µM | > 100 µM | 
31 | CC(Oc1ccc(Cl)cc1Cl)C(=O)N(C)Cc1ccc2c(c1)OCO2 (stereo not drawn) [MBX-2160] |  | 10.1 µM | 24.3 µM | effect of structural alteration on T3SS-mediated secretion inhibition ([1]; vs. MBX-1641): slightly negative impact
32 | CC(Sc1ccc(Cl)cc1Cl)C(=O)NCc1ccc2c(c1)OCO2 (stereo not drawn) [MBX-2161] | 137 °C | 5 µM |  | IC50 values lower (T3SS secretion inhibition) ([1]; vs. MBX-1641): 29%
33 | COc1ccc(CNC(=O)C(C)Sc2ccc(Cl)cc2Cl)cc1OC (stereo not drawn) [MBX-2162] | 112 °C | 30.4 µM | > 100 µM | 
34 | CC(Sc1ccc(Cl)cc1Cl)C(=O)NCc1ccc(F)cc1 (stereo not drawn) [MBX-2164] | 142 °C | 4 µM |  | 
35 | CC(Oc1ccc(Cl)cc1Cl)C(=O)NC(C)c1ccc2c(c1)OCO2 (stereo not drawn) [MBX-2187] | 109 °C | 3.8 µM | 11 µM | 
36 | CC(Oc1ccc(Cl)cc1Cl)C(=O)N1CCc2cc3c(cc2C1)OCO3 (stereo not drawn) [MBX-2188] |  | 114 µM |  | IC50 ([1]; read-out: Secretion IC50): 114 µM
37 | CC(Oc1ccc(Cl)cc1Cl)C(=O)N1CCc2cc(F)ccc2C1 (stereo not drawn) [MBX-2189] |  | 111 µM |  | IC50 ([1]; read-out: Secretion IC50): 111 µM
38 | CC(Oc1ccc(Cl)cc1Cl)C(=O)N1CCc2ccc(F)cc2C1 (stereo not drawn) [MBX-2190] |  | 95.6 µM | > 100 µM | IC50 ([2]; read-out: Translocation IC50): ≥ 100 µM; IC50 ([1]; read-out: Secretion IC50): 95.6 µM
39 | COc1ccc(CNC(=O)C(C)Nc2ccc(Cl)cc2Cl)cc1OC (stereo not drawn) [MBX-2213] | 132 °C | 58.7 µM |  | 
40 | COc1ccc(CNC(=O)C(C)Nc2ccc(Cl)cc2Cl)cc1 (stereo not drawn) [MBX-2214] | 125 °C | 24.5 µM |  | 
41 | CC(Nc1ccc(Cl)cc1Cl)C(=O)NCc1ccc(F)cc1 (stereo not drawn) [MBX-2215] |  | 17.2 µM |  | 
42 | CC(Oc1ccc(Cl)cc1Cl)C(=O)NCCCc1ccc(F)cc1 (stereo not drawn) [MBX-2622] | 112 °C | > 100 µM |  | 
43 | CC(Oc1ccc(Cl)cc1Cl)C(=O)NC(CO)c1ccc(F)cc1 (stereo not drawn) [MBX-2625] |  | 5 µM |  | 
44 | CC(Oc1ccc(Cl)cc1Cl)c1nc(-c2ccc(F)cc2)no1 (stereo not drawn) [MBX-2667, 5-[1-(2,4-dichlorophenoxy)ethyl]-3-(4-fluorophenyl)-1,2,4-oxadiazole] | 77 °C | > 100 µM |  | 
45 | CC(Oc1ccc(Cl)cc1Cl)C(=O)NCc1ccc(F)nc1 (stereo not drawn) [MBX-2677] | 55 °C | 40 µM |  | 
46 | COC(=O)C(NC(=O)C(C)Oc1ccc(Cl)cc1Cl)c1ccc(F)cc1 (stereo not drawn) [MBX-2705] | 84 °C | 6 µM |  | 
47 | CC(Oc1ccc(Cl)cc1Cl)C(=O)NC(C(=O)O)c1ccc(F)cc1 (stereo not drawn) [MBX-2707] | 160 °C | > 100 µM |  | 
48 | CC(Oc1ccc(Cl)cc1Cl)c1nc(Cc2ccc(F)cc2)no1 (stereo not drawn) [MBX-2708, 5-[1-(2,4-dichlorophenoxy)ethyl]-3-(4-fluorobenzyl)-1,2,4-oxadiazole] |  | > 100 µM |  | 
49 | CC(Oc1ccc(Cl)cc1Cl)C(=O)NCc1cnc2[nH]ccc2c1 (stereo not drawn) [MBX-2709] | 198 °C | 8.8 µM |  | 
50 | CC(Oc1ncc(Cl)cc1Cl)C(=O)NCc1ccc(C2(C(F)(F)F)N=N2)cc1 (stereo not drawn) [MBX-2713] | 112 °C | > 100 µM |  | 
51 | CC(Oc1ccc(Cl)cc1Cl)C(=O)OCCc1ccc(F)cc1 (stereo not drawn) [MBX-2717, 4-fluorophenethyl 2-(2,4-dichlorophenoxy)propanoate] |  | > 100 µM |  | 
52 | CC(Oc1ccc(Cl)cc1Cl)C(=O)NCc1ccc(C2(C(F)(F)F)N=N2)cc1 (stereo not drawn) [MBX-2718] | 117 °C | > 100 µM |  | 
53 | CC(Oc1ccc(Cl)cc1Cl)C(=O)CCc1ccc(F)cc1 (stereo not drawn) [MBX-2719, 4-(2,4-dichlorophenoxy)-1-(4-fluorophenyl)pentan-3-one] |  | > 100 µM |  | 
